Experimental data reported in patent US20260001888A1, “PYRAZOLOPYRIMIDINE PDE9 INHIBITORS” (Merck Sharp & Dohme LLC, priority 2018, published 2026).

Target: Human PDE9 (PDE9A2) (Homo sapiens (Human), UniProt O76083)
Assay: PDE9 IMAP fluorescence polarization (FP) inhibition assay
Type: biochemical
Conditions: apparent inhibition constant; human PDE9A2, FAM-cGMP substrate 50 nM, room temperature
Protocol: The activity of the compounds in accordance with the present invention as PDE9 inhibitors may be readily determined without undue experimentation using a fluorescence polarization (FP) methodology that is well known in the art (Huang, W., et al., J. Biomol Screen, 2002, 7:215).
In a typical experiment the PDE9 inhibitory activity of the compounds of the present invention was determined in accordance with the following experimental method.
Human PDE9 (PDE9A2, GenBank Accession No. NM_001001567), full length with N-terminal GST tag, was purchased from BPS Bioscience. The fluorescence polarization assay for cyclic nucleotide phosphodiesterases was performed using an IMAP® FP kit supplied by Molecular Devices, Sunnyvale, CA (product #R8139). IMAP® technology has been applied previously to phosphodiesterase assays (Huang, W., et al., J. Biomol Screen, 2002, 7:215). Assays were performed at room temperature in 384-well microtiter plates with an incubation volume of 20.2 μL. Solutions of test compounds were prepared in DMSO and serially diluted with DMSO to yield 8 μL of each of 10 solutions differing by 3-fold in concentration, at 32 serial dilutions per plate. 100% inhibition is determined using a known PDE9 inhibitor, such as 1-(2-chlorophenyl)-6-[(2R)-3,3,3-trifluoro-2-methylpropyl]-1,5-dihydro-4H-pyrazolo[3,4-d]pyrimidine-4-one (BAY 73-6691) (Wunder et al, Mol. Pharmacol., 2005, 68 (6): 1775-81), (6-[(3S,4S)-4-methyl-1-(pyrimidin-2-ylmethyl) pyrrolidin-3-yl]-1-(tetrahydro-2H-pyran-4-yl)-1,5-dihydro-4H-pyrazolo[3,4-d]pyrimidin-4-one (PF-04447943) (Wager et al., ACS Chemical Neuroscience, 2010, 1:435-449). 0% of inhibition is determined by using DMSO (1% final concentrations). A Labcyte Echo 555 (Labcyte, Sunnyvale, CA) is used to dispense 200 nL from each well of the titration plate to the 384 well assay plate. Human PDE9A2 membrane preps were diluted to 1 ng/ml. […] PDE9 enzyme mix and compounds were mixed and incubated at room temperature for 30 min. Following which, FAMcGMP substrate was added, shaken and incubated for an additional 60 min at room temperature. The final concentration of human PDE9 membrane preparations were 0.5 ng/ml. The final concentration of FAM-cGMP was 50 nM. After the incubation period, the enzymatic reaction was stopped by addition of binding solution (IMAP-FP, Molecular Devices, comprised of 80% Solution A, 20% Solution B and a 1:600 dilution of binding reagent) to each well. The plates were shaken then incubated at room temperature for 1 h prior to determining the fluorescence polarization (mP) using a Perkin Elmer En Vision™ plate reader (Waltham, MA).
Fluorescence polarization (mP) was calculated from the parallel(S) and perpendicular (P) fluorescence of each sample well and the analogous values for the median control well, containing only substrate (So and Po), using the following equation: […]
Dose-inhibition profiles for each compound were characterized by fitting the mP data to a four-parameter equation given below. The apparent inhibition constant (KI), the maximum inhibition at the low plateau relative to “100% Inhibition Control” (Imax; e.g. 1=>same as this control), the minimum inhibition at the high plateau relative to the “0% Inhibition Control” (Imin, e.g. 0=>same as the no drug control) and the Hill slope (nH) are determined by a non-linear least squares fitting of the mP values as a function of dose of the compound using an in-house software based on the procedures described by Mosser et al., JALA, 2003, 8:54-63, using the following equation: […]
An apparent (Km) for FAM-labeled […] of 150 nM was determined in separate experiments through simultaneous variation of substrate and selected drug concentrations.

Sequence of Human PDE9 (PDE9A2) (O76083 other isoform, or with tags, fused parts or gaps): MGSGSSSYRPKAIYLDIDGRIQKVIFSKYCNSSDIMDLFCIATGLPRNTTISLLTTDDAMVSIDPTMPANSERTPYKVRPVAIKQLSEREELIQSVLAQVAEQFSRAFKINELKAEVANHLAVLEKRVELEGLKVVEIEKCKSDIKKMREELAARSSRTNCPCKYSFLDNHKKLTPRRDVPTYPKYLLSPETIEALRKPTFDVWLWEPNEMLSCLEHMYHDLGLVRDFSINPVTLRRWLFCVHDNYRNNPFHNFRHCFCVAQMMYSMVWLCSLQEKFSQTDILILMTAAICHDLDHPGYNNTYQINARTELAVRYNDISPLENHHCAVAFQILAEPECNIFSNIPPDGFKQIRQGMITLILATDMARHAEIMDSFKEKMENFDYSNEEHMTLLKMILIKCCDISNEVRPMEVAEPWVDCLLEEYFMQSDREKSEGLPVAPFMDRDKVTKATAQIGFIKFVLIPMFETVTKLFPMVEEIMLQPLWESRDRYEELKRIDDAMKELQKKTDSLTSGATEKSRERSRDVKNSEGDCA

Ki [nM]	Compound
3.2	CCC(c1ncccn1)N(C)c1nc2c(c(C#N)nn2C(C)c2ccc(C3CC3)nc2)c(=O)[nH]1 (single isomer, unassigned) [Example 1, 1-(1-(6-Cyclopropylpyridin-3-yl)ethyl)-6-(methyl(1-(pyrimidin-2-yl)propyl)amino)-4-oxo-4,5-dihydro-1H-pyrazolo[3,4-d]pyrimidine-3-carbonitrile]
5.24	CCC(c1ncccn1)N(C)c1nc2c(c(C#N)nn2C(C)c2ccc(C3CC3)nc2)c(=O)[nH]1 (single isomer, unassigned) [Example 2, 1-(1-(6-Cyclopropylpyridin-3-yl)ethyl)-6-(methyl(1-(pyrimidin-2-yl)propyl)amino)-4-oxo-4,5-dihydro-1H-pyrazolo[3,4-d]pyrimidine-3-carbonitrile]
1.82	CCC(c1ncccn1)N(C)c1nc2c(c(C#N)nn2C(C)c2ccc(C3CC3)nc2)c(=O)[nH]1 (single isomer, unassigned) [Example 3, 1-(1-(6-Cyclopropylpyridin-3-yl)ethyl)-6-(methyl(1-(pyrimidin-2-yl)propyl)amino)-4-oxo-4,5-dihydro-1H-pyrazolo[3,4-d]pyrimidine-3-carbonitrile]
0.03	CCC(c1ncccn1)N(C)c1nc2c(c(C#N)nn2C(C)c2ccc(C3CC3)nc2)c(=O)[nH]1 (single isomer, unassigned) [Example 4, 1-(1-(6-Cyclopropylpyridin-3-yl)ethyl)-6-(methyl(1-(pyrimidin-2-yl)propyl)amino)-4-oxo-4,5-dihydro-1H-pyrazolo[3,4-d]pyrimidine-3-carbonitrile]
2.3	CC(c1ncccn1)N(C)c1nc2c(c(C#N)nn2C(C)c2ccc(C(F)(F)F)nc2)c(=O)[nH]1 (single isomer, unassigned) [Example 5, 6-[methyl(1-pyrimidin-2-ylethyl)amino]-4-oxo-1-[1-[6-(trifluoromethyl)-3-pyridyl]ethyl]-5H-pyrazolo[3,4-d]pyrimidine-3-carbonitrile]
6.21	CC(c1ncccn1)N(C)c1nc2c(c(C#N)nn2C(C)c2ccc(C(F)(F)F)nc2)c(=O)[nH]1 (single isomer, unassigned) [Example 6, 6-[methyl(1-pyrimidin-2-ylethyl)amino]-4-oxo-1-[1-[6-(trifluoromethyl)-3-pyridyl]ethyl]-5H-pyrazolo[3,4-d]pyrimidine-3-carbonitrile]
20.8	CC(c1ncccn1)N(C)c1nc2c(c(C#N)nn2C(C)c2ccc(C(F)(F)F)nc2)c(=O)[nH]1 (single isomer, unassigned) [Example 7, 6-[methyl(1-pyrimidin-2-ylethyl)amino]-4-oxo-1-[1-[6-(trifluoromethyl)-3-pyridyl]ethyl]-5H-pyrazolo[3,4-d]pyrimidine-3-carbonitrile]
243	CC(c1ncccn1)N(C)c1nc2c(c(C#N)nn2C(C)c2ccc(C(F)(F)F)nc2)c(=O)[nH]1 (single isomer, unassigned) [Example 8, 6-[methyl(1-pyrimidin-2-ylethyl)amino]-4-oxo-1-[1-[6-(trifluoromethyl)-3-pyridyl]ethyl]-5H-pyrazolo[3,4-d]pyrimidine-3-carbonitrile]
0.14	CCC(c1ncccn1)N(C)c1nc2c(c(C#N)nn2C(C)c2ccc(C(F)(F)F)nc2)c(=O)[nH]1 (single isomer, unassigned) [Example 9, 6-[methyl(1-pyrimidin-2-ylpropyl)amino]-4-oxo-1-[1-[6-(trifluoromethyl)-3-pyridyl]ethyl]-5H-pyrazolo[3,4-d]pyrimidine-3-carbonitrile]
9.98	CCC(c1ncccn1)N(C)c1nc2c(c(C#N)nn2C(C)c2ccc(C(F)(F)F)nc2)c(=O)[nH]1 (single isomer, unassigned) [Example 10, 6-[methyl(1-pyrimidin-2-ylpropyl)amino]-4-oxo-1-[1-[6-(trifluoromethyl)-3-pyridyl]ethyl]-5H-pyrazolo[3,4-d]pyrimidine-3-carbonitrile]
24.5	CCC(c1ncccn1)N(C)c1nc2c(c(C#N)nn2C(C)c2ccc(C(F)(F)F)nc2)c(=O)[nH]1 (single isomer, unassigned) [Example 11, 6-[methyl(1-pyrimidin-2-ylpropyl)amino]-4-oxo-1-[1-[6-(trifluoromethyl)-3-pyridyl]ethyl]-5H-pyrazolo[3,4-d]pyrimidine-3-carbonitrile]
39	CCC(c1ncccn1)N(C)c1nc2c(c(C#N)nn2C(C)c2ccc(C(F)(F)F)nc2)c(=O)[nH]1 (single isomer, unassigned) [Example 12, 6-[methyl(1-pyrimidin-2-ylpropyl)amino]-4-oxo-1-[1-[6-(trifluoromethyl)-3-pyridyl]ethyl]-5H-pyrazolo[3,4-d]pyrimidine-3-carbonitrile]
5.2	CCC(c1ncccn1)N(C)c1nc2c(c(C#N)nn2C(C)c2ccc(C(F)(F)F)cc2)c(=O)[nH]1 (single isomer, unassigned) [Example 13, 6-[methyl(1-pyrimidin-2-ylpropyl)amino]-4-oxo-1-[1-[4-(trifluoromethyl)phenyl]ethyl]-5H-pyrazolo[3,4-d]pyrimidine-3-carbonitrile]
0.01	CCC(c1ncccn1)N(C)c1nc2c(c(C#N)nn2C(C)c2ccc(C(F)(F)F)cc2)c(=O)[nH]1 (single isomer, unassigned) [Example 14, 6-[methyl(1-pyrimidin-2-ylpropyl)amino]-4-oxo-1-[1-[4-(trifluoromethyl)phenyl]ethyl]-5H-pyrazolo[3,4-d]pyrimidine-3-carbonitrile]
2.82	CCC(c1ncccn1)N(C)c1nc2c(c(C#N)nn2C(C)c2ccc(C(F)(F)F)cc2)c(=O)[nH]1 (single isomer, unassigned) [Example 15, 6-[methyl(1-pyrimidin-2-ylpropyl)amino]-4-oxo-1-[1-[4-(trifluoromethyl)phenyl]ethyl]-5H-pyrazolo[3,4-d]pyrimidine-3-carbonitrile]
11.1	CCC(c1ncccn1)N(C)c1nc2c(c(C#N)nn2C(C)c2ccc(C(F)(F)F)cc2)c(=O)[nH]1 (single isomer, unassigned) [Example 16, 6-[methyl(1-pyrimidin-2-ylpropyl)amino]-4-oxo-1-[1-[4-(trifluoromethyl)phenyl]ethyl]-5H-pyrazolo[3,4-d]pyrimidine-3-carbonitrile]
0.01	CCC(c1ncc(C(F)F)cn1)N(C)c1nc2c(c(C#N)nn2C(C)c2ccc(C(F)(F)F)nc2)c(=O)[nH]1 (single isomer, unassigned) [Example 17, 6-[1-[5-(difluoromethyl)pyrimidin-2-yl]propyl-methyl-amino]-4-oxo-1-[1-[6-(trifluoromethyl)-3-pyridyl]ethyl]-5H-pyrazolo[3,4-d]pyrimidine-3-carbonitrile]
2.07	CCC(c1ncc(C(F)F)cn1)N(C)c1nc2c(c(C#N)nn2C(C)c2ccc(C(F)(F)F)nc2)c(=O)[nH]1 (single isomer, unassigned) [Example 18, 6-[1-[5-(difluoromethyl)pyrimidin-2-yl]propyl-methyl-amino]-4-oxo-1-[1-[6-(trifluoromethyl)-3-pyridyl]ethyl]-5H-pyrazolo[3,4-d]pyrimidine-3-carbonitrile]
7.36	CCC(c1ncc(C(F)F)cn1)N(C)c1nc2c(c(C#N)nn2C(C)c2ccc(C(F)(F)F)nc2)c(=O)[nH]1 (single isomer, unassigned) [Example 19, 6-[1-[5-(difluoromethyl)pyrimidin-2-yl]propyl-methyl-amino]-4-oxo-1-[1-[6-(trifluoromethyl)-3-pyridyl]ethyl]-5H-pyrazolo[3,4-d]pyrimidine-3-carbonitrile]
